For one test, the species on record is Homo sapiens. In words: Inhibition of calcium ionophore (A-23187) stimulated leukotriene B4 (LTB4) formation in human neutrophils at 390 nM. The test is classed as functional.
A further test has as its system Rattus norvegicus. The test is described as follows: Inhibition of leukotriene production in an ionophore-induced rat pleurisy model at 3 mg/kg. The test is classed as functional. Particulars: for inhibition in vivo at 3 mg/kg: Rattus norvegicus.

What is called IC50 is the concentration that gives 50% inhibition. Regarding `O=C(O)C(c1ccc(OCc2ccc3ccccc3n2)cc1)c1ccc(OCc2ccc3ccccc3n2)cc1`, in the test filed under Homo sapiens (Homo sapiens), the IC50 is 60 nM.

One may read the inhibition in vivo as the share of the control response that was lost under treatment. High values mean strong suppression, low ones little suppression. Take `O=C(O)C=C(c1ccc(OCc2ccc3ccccc3n2)cc1)c1ccc(OCc2ccc3ccccc3n2)cc1`: the IC50 in the test listed under Homo sapiens (Homo sapiens) was 50 nM. Moreover, in the test on Rattus norvegicus, the inhibition in vivo at 3 mg/kg turned out to be 11%.

For `CC(C)(CO/N=C/C(=O)O)C(c1ccc(OCc2ccc3ccccc3n2)cc1)c1ccc(OCc2ccc3ccccc3n2)cc1`, the IC50 in the test filed under Homo sapiens (Homo sapiens) came to 34 nM. In the test on Rattus norvegicus, this molecule came in with an inhibition in vivo at 3 mg/kg of 27%.

As for `CC(CCCO)(c1ccc(OCc2ccc3ccccc3n2)cc1)c1ccc(OCc2ccc3ccccc3n2)cc1`, in the test listed under Homo sapiens (Homo sapiens), the IC50 is 130 nM. The molecule also had an inhibition in vivo at 3 mg/kg with Rattus norvegicus of 7%.

Usually Inhibition stands for the drop in the measured response relative to a control, in per cent. Read a low Inhibition as a response near the control. In the case of `O=C([O-])C1CCC(c2ccc(OCc3ccc4ccccc4n3)cc2)(c2ccc(OCc3ccc4ccccc4n3)cc2)CC1.[Na+]`, the IC50 in the test listed under Homo sapiens (Homo sapiens) turned out to be 47 nM. In the test on Rattus norvegicus, this molecule yielded an Inhibition of 18%.

For the molecule `O=C(O)C1CCC(c2ccc(OCc3ccc4ccccc4n3)cc2)(c2ccc(OCc3ccc4ccccc4n3)cc2)CC1`, the IC50 in the test filed under Homo sapiens turned out to be 60 nM. Further, the Inhibition in the test on Rattus norvegicus came to 0%.

Turning to `CC(O)(c1ccc(OCc2ccc3ccccc3n2)cc1)c1ccc(OCc2ccc3ccccc3n2)cc1`, the IC50 in the test filed under Homo sapiens (Homo sapiens) came out at 50 nM. In the test with Rattus norvegicus, this molecule returned an inhibition in vivo at 3 mg/kg of 0%.

As for `CC(CCC(=O)O)(c1ccc(OCc2ccc3ccccc3n2)cc1)c1ccc(OCc2nc3ccccc3s2)cc1` (configuration not stated), the IC50 in the test filed under Homo sapiens (Homo sapiens) worked out at 52 nM.

For the molecule `O=C(O)CON=C(c1ccc(OCc2ccc3ccccc3n2)cc1)c1ccc(OCc2ccc3ccccc3n2)cc1`, the IC50 in the test listed under Homo sapiens (Homo sapiens) was determined as 32 nM. Testing at 3 mg/kg with Rattus norvegicus gave an inhibition in vivo of 0%.

Turning to `O=C(O)CO/N=C/C=C(c1ccc(OCc2ccc3ccccc3n2)cc1)c1ccc(OCc2ccc3ccccc3n2)cc1`, the IC50 in the test filed under Homo sapiens (Homo sapiens) was found to be 26 nM. In the test on Rattus norvegicus, this molecule returned an inhibition in vivo at 3 mg/kg of 10%.

For `C/C(=N\OCC=C(c1ccc(OCc2ccc3ccccc3n2)cc1)c1ccc(OCc2ccc3ccccc3n2)cc1)C(=O)O`, the IC50 in the test listed under Homo sapiens (Homo sapiens) came out at 20 nM. Besides, in the test with Rattus norvegicus, the inhibition in vivo at 3 mg/kg was 42%.

With `C/C(=N\OCCC#CC(O)(c1ccc(OCc2ccc3ccccc3n2)cc1)c1ccc(OCc2ccc3ccccc3n2)cc1)C(=O)O`, the IC50 in the test filed under Homo sapiens (Homo sapiens) came to 59 nM. Further, in the test with Rattus norvegicus, at 3 mg/kg the inhibition in vivo was 40%.

Consider `CC(CC(c1ccc(OCc2ccc3ccccc3n2)cc1)c1ccc(OCc2ccc3ccccc3n2)cc1)C(=O)O` (configuration not stated), for which the IC50 in the test filed under Homo sapiens (Homo sapiens) stood at 46 nM. This molecule displayed an inhibition in vivo at 3 mg/kg with Rattus norvegicus of 53%.

As to `O=C(O)CO/N=C/C(c1ccc(OCc2ccc3ccccc3n2)cc1)c1ccc(OCc2ccc3ccccc3n2)cc1`, in the test listed under Homo sapiens (Homo sapiens), the concentration for half-maximal inhibition (IC50) turned out to be 35 nM.

Regarding `CCOC(=O)C1CCC(c2ccc(OCc3ccc4ccccc4n3)cc2)(c2ccc(OCc3ccc4ccccc4n3)cc2)CC1`, the IC50 in the test filed under Homo sapiens (Homo sapiens) was 1900 nM.

With `CC(CCC(=O)O)(c1ccc(OCc2ccc3ccccc3c2)cc1)c1ccc(OCc2ccc3ccccc3c2)cc1`, the IC50 in the test listed under Homo sapiens (Homo sapiens) was found to be 830 nM.

Turning to `CC(CCC(=O)O)(c1ccc(OCc2ccc3cc(F)ccc3n2)cc1)c1ccc(OCc2ccc3cc(F)ccc3n2)cc1`, the IC50 in the test listed under Homo sapiens (Homo sapiens) stood at 40 nM. Also, the inhibition in vivo at 3 mg/kg in the test on Rattus norvegicus came to 42%.

As to `CC(CC(=O)O)(c1ccc(OCc2ccc3ccccc3n2)cc1)c1ccc(OCc2ccc3ccccc3n2)cc1`, in the test listed under Homo sapiens (Homo sapiens), the IC50 came to 170 nM. For the same molecule, 3 mg/kg produced 0% inhibition in vivo in the test with Rattus norvegicus.

`OC(c1ccc(OCc2ccc3ccccc3n2)cc1)c1ccc(OCc2ccc3ccccc3n2)cc1`: the IC50 in the test listed under Homo sapiens (Homo sapiens) amounted to 170 nM. Also, the inhibition in vivo at 3 mg/kg with Rattus norvegicus is 2%.

On to `CC(CC/C=N\OCC(=O)O)(c1ccc(OCc2ccc3ccccc3n2)cc1)c1ccc(OCc2ccc3ccccc3n2)cc1`, for which, in the test listed under Homo sapiens (Homo sapiens), the IC50 turned out to be 40 nM. Also, the inhibition in vivo at 3 mg/kg in the test on Rattus norvegicus worked out at 0%.

`CC(C)(/C=N/OCC(=O)O)C(c1ccc(OCc2ccc3ccccc3n2)cc1)c1ccc(OCc2ccc3ccccc3n2)cc1`: in the test filed under Homo sapiens (Homo sapiens), the IC50 turned out to be 28 nM. Further, in the test on Rattus norvegicus, 3 mg/kg produced 42% inhibition in vivo.

For the molecule `O=C(O)CC(c1ccc(OCc2ccc3ccccc3n2)cc1)c1ccc(OCc2ccc3ccccc3n2)cc1`, the half-maximal inhibitory concentration (IC50) in the test listed under Homo sapiens (Homo sapiens) was determined as 60 nM. The molecule also came in with an inhibition in vivo at 3 mg/kg in the test on Rattus norvegicus of 17%.

Take `Cn1c(COc2ccc(C(C)(CCC(=O)O)c3ccc(OCc4ccc5ccccc5n4)cc3)cc2)nc2ccccc21` (configuration not stated): the IC50 in the test listed under Homo sapiens worked out at 80 nM. For the same molecule, the Inhibition in the test on Rattus norvegicus worked out at 0%.

On to `O=C(O)/C=N/OC(c1ccc(OCc2ccc3ccccc3n2)cc1)c1ccc(OCc2ccc3ccccc3n2)cc1`, for which the IC50 in the test listed under Homo sapiens (Homo sapiens) was found to be 68 nM. Besides, the inhibition in vivo at 3 mg/kg in the test on Rattus norvegicus worked out at 37%.

As to `CC(/C=C/C(=O)O)=N\OC(c1ccc(OCc2ccc3ccccc3n2)cc1)c1ccc(OCc2ccc3ccccc3n2)cc1`, the IC50 in the test listed under Homo sapiens (Homo sapiens) stood at 30 nM. In the test on Rattus norvegicus, this molecule registered an inhibition in vivo at 3 mg/kg of 27%.

Regarding `C/C(=N\OC1CCC(c2ccc(OCc3ccc4ccccc4n3)cc2)(c2ccc(OCc3ccc4ccccc4n3)cc2)CC1)C(=O)O`, in the test filed under Homo sapiens (Homo sapiens), the IC50 was 37 nM. The molecule also came in with an inhibition in vivo at 3 mg/kg in the test on Rattus norvegicus of 48%.

For the molecule `CC(C)(C(=O)O)C(c1ccc(OCc2ccc3ccccc3n2)cc1)c1ccc(OCc2ccc3ccccc3n2)cc1`, the IC50 in the test filed under Homo sapiens (Homo sapiens) was determined as 100 nM. This molecule gave an inhibition in vivo at 3 mg/kg with Rattus norvegicus of 50%.

Turning to `CC(CCCC(=O)O)(c1ccc(OCc2ccc3ccccc3n2)cc1)c1ccc(OCc2ccc3ccccc3n2)cc1` [listing 1 of 2 here], in the test listed under Homo sapiens, the IC50 was determined as 43 nM. In addition, the Inhibition in the test with Rattus norvegicus is 32%.

`O=C(O)CSC(c1ccc(OCc2ccc3ccccc3n2)cc1)(c1ccc(OCc2ccc3ccccc3n2)cc1)c1cccs1` had an inhibition in vivo at 3 mg/kg in the test on Rattus norvegicus of 80%.

Take `O=C(O)CSC(c1ccc(OCc2ccc3ccccc3n2)cc1)c1ccc(OCc2ccc3ccccc3n2)cc1`: the IC50 in the test listed under Homo sapiens (Homo sapiens) came out at 58 nM.

As for `CC(C(=O)[O-])(c1ccc(OCc2ccc3ccccc3n2)cc1)c1ccc(OCc2ccc3ccccc3n2)cc1.[Na+]`, the IC50 in the test filed under Homo sapiens came out at 37 nM. Also, the Inhibition with Rattus norvegicus stood at 46%.

In the test with Rattus norvegicus, `CC(CCC(=O)[O-])(c1ccc(OCc2ccc3ccccc3c2)cc1)c1ccc(OCc2ccc3ccccc3n2)cc1.[Na+]` (configuration not stated) had an Inhibition of 40%.

As for `Cn1c(COc2ccc(C(C)(CCC(=O)[O-])c3ccc(OCc4ccc5ccccc5n4)cc3)cc2)nc2ccccc21.[Na+]` (configuration not stated), the concentration for half-maximal inhibition (IC50) in the test filed under Homo sapiens (Homo sapiens) was determined as 90 nM. Also, the Inhibition in the test on Rattus norvegicus is 10%.

As to `CC(CCCC(=O)O)(c1ccc(OCc2ccc3ccccc3n2)cc1)c1ccc(OCc2ccc3ccccc3n2)cc1` [listing 2 of 2 here], the IC50 in the test listed under Homo sapiens (Homo sapiens) was 32 nM. The molecule further displayed an inhibition in vivo at 3 mg/kg in the test on Rattus norvegicus of 35%.

For `O=C(O)CSC(c1ccccc1)(c1ccc(OCc2ccc3ccccc3n2)cc1)c1ccc(OCc2ccc3ccccc3n2)cc1`, the IC50 in the test listed under Homo sapiens (Homo sapiens) is 87 nM.

With `CC(CCC(=O)O)(c1ccc(OCc2nc3ccccc3s2)cc1)c1ccc(OCc2nc3ccccc3s2)cc1` [listing 1 of 2 here], in the test filed under Homo sapiens, the IC50 was 50 nM.

For the molecule `CC(CCC(=O)O)(c1ccc(OCc2nc3ccccc3s2)cc1)c1ccc(OCc2nc3ccccc3s2)cc1` [listing 2 of 2 here], the IC50 in the test filed under Homo sapiens (Homo sapiens) turned out to be 46 nM. This molecule gave an inhibition in vivo at 3 mg/kg with Rattus norvegicus of 0%.

For the molecule `O=C([O-])CC(c1ccc(OCc2ccc3ccccc3n2)cc1)c1ccc(OCc2ccc3ccccc3n2)cc1.[Na+]`, the IC50 in the test filed under Homo sapiens came to 70 nM. In addition, in the test on Rattus norvegicus, the Inhibition stood at 30%.

As for `CC(C(=O)O)(c1ccc(OCc2ccc3ccccc3n2)cc1)c1ccc(OCc2ccc3ccccc3n2)cc1`, in the test listed under Homo sapiens (Homo sapiens), the concentration for half-maximal inhibition (IC50) was 32 nM. Besides, the Inhibition in the test with Rattus norvegicus was determined as 25%.

Regarding `O=C([O-])C=C(c1ccc(OCc2ccc3ccccc3n2)cc1)c1ccc(OCc2ccc3ccccc3n2)cc1.[Na+]`, the IC50 in the test listed under Homo sapiens amounted to 40 nM. The Inhibition in the test on Rattus norvegicus is given as 19%.

For `C/C(=N\OCCCC(C)(c1ccc(OCc2ccc3ccccc3n2)cc1)c1ccc(OCc2ccc3ccccc3n2)cc1)C(=O)O`, the IC50 in the test filed under Homo sapiens (Homo sapiens) was 35 nM. The molecule also showed an inhibition in vivo at 3 mg/kg in the test with Rattus norvegicus of 4%.

Source of the values: ChEMBL document CHEMBL1133442, “Symmetrical bis(heteroarylmethoxyphenyl)alkylcarboxylic acids as inhibitors of leukotriene biosynthesis” (J Med Chem, 2000).
